Here are results for nine molecules from article PMC10232370 (2023).

Assay [1] concerns Cy5-2DCS model with two A bulges (RNA, mismatch bulge abasic) GGGUUUAAUAGAUACGAAAGUACUAAUUGGAUCC
The assay is described as follows: microscale thermophoresis. In general terms: Microscale thermophoresis detects binding through changes in fluorescence in a small temperature gradient.

Assay [2] relates to Cy5-2DCS model fully base paired (RNA, hairpin) GGGUUUAAUUAGAUACGAAAGUAUCUAAUUGGAUCC
The assay is described as follows: microscale thermophoresis. Particulars: no saturable binding.

Assay [3] deals with Cy5-5'GAU/3'C_A mimic (minimized pre-miR-155 A bulge) (RNA, mismatch bulge abasic) GUAAUGAUUACGAAAGUAACAUUGC
The assay is described as follows: microscale thermophoresis.

In assay [4] the test system is Cy5-5'GAU/3'CUA mimic (A bulge to AU pair) (RNA, hairpin) GUAAUGAUUACGAAAGUAAUCAUUGC
The assay is described as follows: microscale thermophoresis. As to conditions: no saturable binding.

In assay [5] the test system is pre-miR-155 A bulge with 2-aminopurine (2AP) (RNA, mismatch bulge abasic, 2-aminopurine in place of the bulged A) GUAAUGAUUACGAAAGUAACAUUGC
The assay is described as follows: 2-aminopurine fluorescence titration.

The subject of assay [6] is Cy5-labelled JUN IRES model (RNA, mRNA element) GCAGUAUAGGAAACUAACUGC
The assay is described as follows: Cy5 fluorescence titration.

In assay [7] the test system is JUN IRES fully paired control (A bulge to AU pair), Cy5 (RNA, mRNA element) GCAGUAUAGGAAACUAUACUGC
The assay is described as follows: Cy5 fluorescence titration. As to conditions: no saturable binding.

Assay [8] has as its system JUN IRES A bulge model with 2AP (5'UAU/3'A_A) (RNA, mRNA element, 2-aminopurine in place of the bulged A) GCAGUAUAGGAAACUAACUGC
The assay is described as follows: 2-aminopurine fluorescence titration.

In assay [9] the test system is Cy5-labelled MYC IRES 5'UUCG/3'ACCC 2x2 internal loop model (RNA, mRNA element) GGGGGCUUCGCCUCUGGCCCAGCCCUC
The assay is described as follows: Cy5 fluorescence titration.

The subject of assay [10] is MYC IRES fully paired control RNA (RNA, mRNA element) GGGGGCUUCGCCUCUGGCGAAGCCCUC
The assay is described as follows: Cy5 fluorescence titration.

The subject of assay [11] is pre-miR-155 (wild type) (RNA, miRNA) GGCUGUUAAUGCUAAUCGUGAUAGGGGUUUUUGCCUCCAACUGACUCCUACAUAUUAGCAUUAACAG
The assay is described as follows: competition with 2AP-labelled RNA. As to conditions: RIBOTAC 5 µM, 2AP-labelled A bulge RNA 1 µM; unlabelled pre-miR-155 as competitor.

Assay [12] relates to pre-miR-155 +U49 mutant (A bulge to AU pair) (RNA, miRNA) GGCUGUUAAUGCUAAUCGUGAUAGGGGUUUUUGCCUCCAACUGACUCCUAUCAUAUUAGCAUUAACAG
The assay is described as follows: competition with 2AP-labelled RNA. As to conditions: RIBOTAC 5 µM, 2AP-labelled A bulge RNA 1 µM; mutant does not compete.

The subject of assay [13] is JUN IRES 2AP control RNA (bulge converted to base pair) (RNA, mRNA element, 2-aminopurine (position not given)) GCAGUAUAGGAAACUAUACUGC
The assay is described as follows: 2-aminopurine fluorescence titration.

Where two headings read alike, the source gives them in different places. Bounds are passed on as bounds.

For orientation: Kd means the concentration at which binding is half-saturated. Read a low Kd as higher affinity. On to `CCCCCCCCCCCc1c(CCCCCCCCCCC)[n+](-c2c(C(C)C)cccc2C(C)C)cn1-c1c(C(C)C)cccc1C(C)C`, for which the dissociation constant (Kd) in assay [1] is recorded as 1.2 ± 0.1 µM; in [3], 0.8 ± 0.1 µM. Moreover, the binding result in assay [2] and in [4] was “no” each time. For the same molecule, the “Kd,app” value in [5] (apparent, error printed as 1.2) was determined as 3.9 ± 1 µM.

In [3] (similar affinity to C1), `CCCNC(=O)CCc1c(C)n(-c2c(C(C)C)cccc2C(C)C)c[n+]1-c1c(C(C)C)cccc1C(C)C` displayed a dissociation constant (Kd) of 1.1 ± 0.1 µM. Also, the binding result in assay [5] (similar affinity to C1) is “yes”.

Usually EC50 stands for the concentration at which the effect is half-maximal. Read a high EC50 as a less potent agent. `CCOC(=O)C1=C(Nc2ccccc2)S/C(=C\c2ccc(O)c(OCCOCCOCCOCCNC(=O)CCNc3nc(Nc4ccc(C5=NCCN5)cc4)nc(Nc4ccc(C5=NCCN5)cc4)n3)c2)C1=O` returned a Kd in [6] of 0.4 ± 0.1 µM. Further, in assay [7], the binding entry is “no”. The same molecule showed an EC50 in assay [8] of 3.5 ± 0.9 µM.

As for `CCOC(=O)C1=C(Nc2ccccc2)S/C(=C\c2ccc(O)c(OCCOCCOCCOCCNC(=O)c3cc(NC(=O)Nc4ccc(C5=NCCN5)cc4)cc(NC(=O)Nc4ccc(C5=NCCN5)cc4)c3)c2)C1=O`, in [9], the Kd is recorded as 0.9 ± 0.2 µM. Besides, the binding entry in assay [10] (no saturable binding) is “no”.

Consider `CCOC(=O)C1=C(Nc2ccccc2)S/C(=C\c2ccc(OCCOCCOCCOCCNC(=O)CCNc3nc(Nc4ccc(C5=NCCN5)cc4)nc(Nc4ccc(C5=NCCN5)cc4)n3)c(O)c2)C1=O`, for which the Kd in assay [6] is listed as 0.5 ± 0.2 µM. In addition, the binding entry in [7] was “no”. The half-maximal effective concentration (EC50) in assay [8] worked out at 1.8 ± 0.5 µM.

With `CCOC(=O)C1=C(Nc2ccccc2)S/C(=C\c2ccc(OCCOCCOCCOCCNC(=O)CCc3c(C)n(-c4c(C(C)C)cccc4C(C)C)c[n+]3-c3c(C(C)C)cccc3C(C)C)c(O)c2)C1=O`, the dissociation constant Kd in assay [11] is recorded as 2.2 ± 0.9 µM. Further, the binding result in assay [12] is on record as “no”.

`CCOC(=O)C1=C(Nc2ccccc2)S/C(=C\c2ccc(OCCOCCOCCOCCNC(=O)c3cc(NC(=O)Nc4ccc(C5=NCCN5)cc4)cc(NC(=O)Nc4ccc(C5=NCCN5)cc4)c3)c(O)c2)C1=O`: the Kd in assay [9] amounted to 1.1 ± 0.1 µM. Besides, the binding entry in assay [10] (no saturable binding) is “no”.

As to `CNc1nc(Nc2ccc(C3=NCCN3)cc2)nc(Nc2ccc(C3=NCCN3)cc2)n1`, the dissociation constant Kd in assay [6] amounted to 3.2 ± 2 µM. In addition, the half-maximal effective concentration (EC50) is recorded as 1.1 ± 0.2 µM in assay [8] and greater than 50 µM in assay [13].

`O=C(Nc1ccc(C2=NCCN2)cc1)Nc1cc(NC(=O)Nc2ccc(C3=NCCN3)cc2)cc(C(=O)O)c1` gave a dissociation constant Kd in [9] of 2.3 ± 1 µM. In addition, the binding result in assay [10] is listed as “no”.
